Results: US20180117171A1, “IMMUNOCONJUGATES FOR PROGRAMMING OR REPROGRAMMING OF CELLS” (President and Fellows of Harvard College, priority 2015, published 2018)
Where no end group is shown, it is not given here.

What was measured:
[1] = system: mononuclear cells isolated from the bone marrow; test: DC induced in vitro from bone marrow cells with GM-CSF with or without TSLP, VIP or TGF-β; assay type: cell-based, C57BL/6 mice; settings: for CD11c+/CD86+ in total BM cells: 7 day incubation; for expression of IL-6 and IL-12: GM-CSF in the presence of factor, bacterial stimulation, compared to GM-CSF alone
Text: The surface phenotypes of CD11c+DC in the BM culture were monitored by flow cytometry and the proportionality of each phenotype is expressed as a percent (%) of the total mononuclear cells (MNC) (FIG. 5, Table 1).
The present invention provides for a material-based local application of GM-CSF with appropriate DC influencing factors that leads to tolerogenic DCs (tDCs), and subsequent enrichment of iTreg cells. Candidate biofactors include thymic stromal lymphopoietin (TSLP), vasoactive intestinal peptide (VIP), and transforming growth factor-beta (TGF-β). Screening is based on the induced DC's anti-inflammatory properties. […] Overall, these observations that the combination of GM-CSF with TSLP efficiently induces DC with an anti-inflammatory phenotype.

[2] = system: CD4+ T cells from OT-II mice; test: CD4 T cell proliferation with peptide-MPS stimulated BMDCs; assay type: cell-based; settings: compared to peptide stimulation only
Text: FIG. 54A-C are a set of graphs showing the effect of peptide-MPS conjugates on CD4 T cell proliferation, as evaluated in vitro. BMDCs were stimulated with […] (peptide) (SEQ ID NO: 19), […] (SEQ ID NO: 19) conjugated to MPS through SMCC (SMCC), and […] BMDCs were then washed thoroughly and co-cultured with CD4^+ T cells from OT-II mice. OT-II mice are enriched for CD4^+ T cells recognizing the […] (SEQ ID NO: 20) peptide.

[3] = system: bone marrow derived dendritic cells (BMDCs); test: antigen presentation of […]-MPS conjugate by BMDCs (flow cytometry); assay type: cell-based; settings: 18 hours, versus peptide adsorbed to MPS
Text: FIG. 53 is a pair of graphs evaluating the antigen presentation of […] (SEQ ID NO: 18)-MPS conjugate. […] Percentage of BMDCs presenting the peptide was quantified using flow cytometry.

B3Z T cell line [4] = test: B3Z cell: DC co-culture, X-gal assay; assay type: cell-based
Protocol: (§1) 15 hours later, the cells were fixed and stained with X-gal (Imgenix) according to the manufacturer's instructions. The cells were photographed at 10× magnification using a standard bright field microscope. A similar protocol was followed for the chlorophenol […] staining assay (Imgenix), except that after 15 hours, the cells were washed and lysed in a chlorophenol red-β-D-galactopyranoside staining buffer. After a 4 hour incubation at 37° C., the absorbance at 590 nm was obtained.
Following a 15 hour co-culture, the cells were fixed, stained with X-gal, and imaged. The images were all obtained at 10× magnification and represent a typical distribution of cells (FIG. 29).

B3Z T cell line [5] = test: B3Z cell: DC co-culture, CPRG assay; assay type: cell-based; settings: antigen concentrations greater than 10 nM
Protocol: as §1
The cells were then lysed and treated with the β-galactosidase substrate, chlorophenol red-β-D-galactopyranoside (CPRG). After 4 hours of incubation, the absorbance at 590 nm was obtained. Staining was due to β a-galactosidase expression driven by elements of the IL-2 promoter.

BMDC [6] = test: IL-12p70 elaboration from BMDC (ELISA); settings: 100 nM, LPS 50 ng/ml
[7] = system: primary bone marrow dendritic cells (BMDC); test: dexamethasone effect on surface markers of bone marrow dendritic cells (FACS); assay type: cell-based, mouse
Protocol: Flow cytometry was conducted according to standard protocols. Cells were harvested, washed, and resuspended to a final cell concentration of 1-5 million cells/ml in ice cold phosphate buffered saline (PBS) with 10% fetal bovine serum (FBS) and 1% sodium azide. Anti-mouse antibodies including anti-CD11c, MHC II, CD80, CD86, and OVA 257-264 bound to H-2Kb were then aliquotted according to the manufacturer's recommended dilutions (Ebioscience). During staining, cells were incubated for 20 minutes at room temperature and then 20 minutes on ice. The cells were then washed and kept on ice until analysis. Some samples were fixed in 1% paraformaldehyde (PFA) for later flow cytometric studies. Flow cytometry was conducted on the BD LSR II or the BD Fortessa. Analysis was done using Flowjo (Tree Star Inc.).
The listed concentrations of dexamethasone were added on day 6 and day 8. For the lipopolysaccharide (LPS) condition, LPS was added to a concentration of 50 ng/ml on day 9. […] “LPS” samples had LPS, but no dexamethasone.
For these studies, dexamethasone was added on day 6 and day 8. LPS was added to a concentration of 50 ng/ml on day 9. […] “LPS” samples had LPS, but no dexamethasone.

Jaws II cells = test: transwell migration of Jaws II DC; assay type: cell-based; settings: 10^−6 or 10^−7 M dexamethasone
BMDC [8] = test: MHC II and co-stimulatory molecule surface presentation on BMDC after LPS; assay type: cell-based, mouse; settings: 100 nM compound, next day 50 ng/ml LPS; mean ± SD
Protocol: Day 9 BMDC were harvested from 100 mm diameter plates and seeded into 6 wells of a tissue culture plate in R10 media containing 100 nM dexamethasone or dexamethasone-[…] […] The BD LSR Fortessa was used to analyze the cells. Histograms were created using Flowjo (Tree Star Inc.) and statistical analysis was done using InStat (GraphPad Software).

[9] = system: bone marrow derived murine dendritic cells; test: chemokinesis of bone marrow dendritic cells toward alginate gels, time-lapse imaging; assay type: cell-based; settings: alginate gel with GM-CSF, cells followed for 8 hours
Protocol: GM-CSF enhanced chemokinesis of bone marrow dendritic cells in vitro. Alginate gels with or without GM-CSF ([…]) were placed in a petri dish and surrounded with collagen containing bone marrow derived murine dendritic cells (FIG. 14A). The cells were followed for 8 hours using time-lapse imaging. The velocity of the cells was calculated from initial and final position values and is plotted in FIGS. 14B and C in μm/min. Chemotaxis toward the alginate is given as the positive x coordinate (positive x is directed radially inward). Each dot reflects the velocity of 1 cell, and each plot is representative of three experiments. The average migration speed of cells in the presence of GM-CSF was 3.1 μm/min compared to 1.1 μm/min in the absence of GM-CSF.

JAWSII DCs = test: GM-CSF effects on JAWSII DC recruitment, proliferation, emigration and activation in vitro; assay type: cell-based
Protocol: FIGS. 3A-C are graphs and FIG. 3D is a set of images showing data related to the concentration dependent effects of GM-CSF on DC proliferation, recruitment, activation and emigration in vitro. […] Migration counts measured at 12 hours. (3B) is the effects of GM-CSF concentration on the proliferation of JAWSII DCs. 0 (white bar), 50 (grey bar), and 500 ng/ml (black bar) of GM-CSF. […] Migration counts taken at 6 hours. (3D) are representative photomicrographs of TNF-α and LPS stimulated JAWSII DCs cultured in 5-50 or 500 ng/ml GM-CSF and stained for the activation markers MHCII and CCR7. Scale bar in (3D)—20 μm. Values in (3A-3C) represent mean and standard deviation (n=4); * P<0.05; ** P<0.01
High concentrations (>100 ng/ml) of GM-CSF, however, inhibited DC migration toward the LN-derived chemokine CCL19 (FIG. 3C).

CD11c(+)CD86(+) DCs = test: in vivo DC recruitment to subcutaneous GM-CSF loaded polymers; design: species or system C57BL/6J mice
Text: (§2) FIGS. 4A-F are graphs and images showing data on the in vivo control of DC recruitment and programming. […] Numbers in FACS plots indicate the percentage of the cell population positive for both markers. (4D) is the percentage of total cells that were positive for the DC markers CD11c and CD86, in blank (-∘-) and GM-CSF (-•-) loaded polymers as a function of time post implantation. (4E) The total number of DCs isolated from blank (-∘-) and GM-CSF (-•-) loaded polymers as a function of time post implantation. (4F) The fractional increase in CD11c(+)CD86(+) DCs isolated from polymers at day-14 after implantation in response to doses of 1000, 3000 and 7000 ng of GM-CSF as compared to the control. Scale bar—500 μm. Values in 4A, 4D, 4E, and 4F represent mean and standard deviation (n=4 or 5); * P<0.05; ** P<0.01.
(§3) The polymer delivery vehicle presents GM-CSF in a defined spatiotemporal manner in vivo, following introduction into the tissue of interest. Exemplary vehicle quickly release approximately 60% of the bioactive GM-CSF load within the first 5 days, followed by slow and sustained release of bioactive GM-CSF over the next 10 days (FIG. 4A), to allow diffusion of the factor through the surrounding tissue and effectively recruit resident DCs. Polymers were loaded with 3 μg of GM-CSF and implanted into the dorsal subcutaneous site of C57BL/6J mice. […]

[10] = release profile of GM-CSF from polymer delivery vehicle; assay type: physicochemical; settings: within the first 5 days
Text: as §2, §3

With TGF-β the “CD11c+/CD86+ in total BM cells” value [1] was 10.5% and the “expression of IL-6 and IL-12” value [1] was “diminished expression”.

For “CISQAVHAAHAEINEAGR (SEQ ID NO: 19) conjugated to MPS through SPDP: ovalbumin CD4 epitope conjugated to MPS through reducible SPDP linker (also: conjugated to MPS via SPDP linker)”, the “CD4 T cell proliferation” value [2] was “significantly higher T cell proliferation”.

In the case of “VIP: vasoactive intestinal peptide (HSDAVFTDNYTRLRKQMAVKKYLNSILN; ends and bridges not checked; UniProt P01282 125-152, looked up)”, the “expression of IL-6 and IL-12” value [1] is reported as “diminished expression” and the “IL-10 production by induced DC” value ([1]; GM-CSF plus factor (100 ng/ml), 7 days, bacterial challenge) is reported as “did not up-regulate”.

In the case of “SPDP CSIINFEKL (SEQ ID NO: 18)-MPS: ovalbumin CD8 epitope CSIINFEKL conjugated to MPS through reducible SPDP linker (also: SPDP linker to MPS)”, the “BMDCs presenting the peptide” value ([3]; 10 nM) is reported as “significantly better presented” and the “BMDCs presenting the peptide” value ([3]; 100 nM) is reported as “comparable levels”.

In the case of TSLP: thymic stromal lymphopoietin, the “expression of IL-6 and IL-12” value [1] is reported as “diminished expression”.

In the case of SIINFEKL (Exemplary ovalbumin peptide.), the “X-gal staining of B3Z cells” value (B3Z T cell line [4]; 0.05 μM peptide) is reported as “many positive cells”, the “X-gal staining of B3Z cells” value (B3Z T cell line [4]; 1.0 μM peptide) is reported as “numerous positive cells” and the “CPRG hydrolysis versus dexamethasone-SIINFEKL groups” value (B3Z T cell line [5]) is reported as “greater CPRG hydrolysis”.

For `C[C@@H]1C[C@H]2[C@@H]3CCC4=CC(=O)C=C[C@]4(C)[C@@]3(F)[C@@H](O)C[C@]2(C)[C@@]1(O)C(=O)CO` [dexamethasone], the “reduction of IL-12 elaboration from BMDC, factor” value (BMDC [6]) was ~4, the “dexamethasone concentrations with MHC II, CD80, CD86 staining reduced compared to LPS positive control” value ([7]; LPS treated) was “greater than or equal to 10^−8 M” and the “dexamethasone concentrations that reduced CD11c expression” value ([7]; immature BMDC cultures) was ≥ 10^−8 M. The “dexamethasone concentration at which inhibition of CD11c+ staining begins” value ([7]; mature DC treated with LPS 50 ng/ml) was “around 10^−8 M”, the “number of cells that migrated to CCL20 relative to control” value (Jaws II cells) was “approximately 1.8 fold” and the “MFI CD80” value (BMDC [8]) was 3100 ± 100^δ. The “MFI CD86” value (BMDC [8]) was 2050 ± 5^β and the “MFI MHC II” value (BMDC [8]) was 540 ± 20^α.

For GM-CSF, the “CD11c+/CD86+ in total BM cells” value [1] was 14.7%, the “average migration speed of cells” value [9] was 3.1 μm/min and the “DC activation via TNF-α and LPS stimulation (MHCII, CCR7 expression)” value (JAWSII DCs; high concentrations of GM-CSF) was “suppressed DC activation”. The “DC recruitment and proliferation” value (JAWSII DCs; in vitro) was “enhanced DC recruitment and proliferation in a dose-dependent manner”, the “GM-CSF concentrations that inhibited DC migration toward CCL19” value (JAWSII DCs; transwell) was > 100 ng/mL and the “CD11c(+)CD86(+) DCs by FACS” value (CD11c(+)CD86(+) DCs; 3 μg GM-CSF loaded polymers) was “increased not just the total cell number, but also the percentage of infiltrating cells that were DCs”. The “total cellular infiltration at the site” value (CD11c(+)CD86(+) DCs; 3 μg GM-CSF, day-14, compared to control) was “significantly enhanced” and the “bioactive GM-CSF load released” value [10] was “approximately 60%”.

For “CISQAVHAAHAEINEAGR (SEQ ID NO: 19) conjugated to MPS through SMCC: ovalbumin CD4 epitope conjugated to MPS through stable SMCC linker (also: conjugated to MPS via SMCC linker)”, the “CD4 T cell proliferation” value [2] was “significantly higher T cell proliferation”.
